{"source": "patent US20200078426A1", "about": "“TREATMENT OF CANCER BY INFUSION OF ONCOLYTIC HERPES SIMPLEX VIRUS TO THE BLOOD” (VIRTTU BIOLOGICS LIMITED, priority 2015, published 2020)", "origin": "cited, not measured here", "tested_on": "squamous cell head and neck cancer", "details": "concurrent chemo-radiation arm, unresectable locally advanced disease; radiation alone 23%", "data": [{"smiles": "N.N.[Cl][Pt][Cl]", "note": "[cisplatin]", "values": [{"measurement": "three year overall survival", "value": 37, "unit": "%"}]}]}
